Laboratory results reported in patent US9596857B2, “Insecticidal and miticidal mixtures of bifenthrin and cyano-pyrethroids” (FMC Corporation, priority 2005, dated 2017).
Where “and” joins values, the source holds several entries; their conditions need not be identical. Identical values can stand only once.

Legend:
Type in all cases: in vivo
[1] = tested on: Colorado potato beetle (Leptinotarsa decemlineata [Say]); test: Foliar leaf-dip test against adult Colorado potato beetle on tomato plants; conditions: technical, 72 h
Procedure: (§1) Candidate insecticide compositions were evaluated for activity in foliar evaluations against tobacco budworm (Heliothis virescens [Fabricius]), Colorado potato beetle (Leptinotarsa decemlineata [Say]), corn earworm (Helicoverpa zea [Boddie]), cotton aphid (Aphis gossypii [Glover]) and twospotted spider mite (Tetranychus urticae [Koch]). Each test included controls in which the formulation or test solution minus the active ingredients were applied.
In tests against adult Colorado potato beetle, the leaves of 6-8 inch tall tomato plants (Lycopersicon lycoper) were dipped into the test solutions of the test formulations to provide application rates as high as 1000 ppm of the active ingredients. The test formulations were dissolved in distilled water containing 10% acetone and 0.25% of a non-ionic detergent [an octylphenolpoly(ethyleneglycolether)x, available from Roche Applied Science as Triton X-100] to the proper concentrations. The treated plants were transferred to a hood where they were kept until the leaves had dried. For tests in which the active ingredients were not formulated, i.e. the technical active ingredient was used; a stock solution of the test compound was made. For example, a 100 ppm stock solution may be made by dissolving 4 milligrams of the test compound in 4 mL of acetone and adding the solution to 36 mL of an aqueous Triton X-100 solution (one drop of Triton X-100 dissolved in 100 mL of distilled water). Further dilutions can be made by adding distilled water containing 10% acetone and 0.25% of Triton X-100.
The treated tomato plants were removed from their pots by cutting the stems just above the soil line. Each excised plant was placed into an individual 8-ounce paper cup. Ten adult Colorado potato beetles were placed into each paper cup, taking care not to cause injury. An opaque plastic lid was placed on each cup, for a 72 hour exposure period and held at 25° C., 50% relative humidity with a photo-period of 12 hours light and 12 hours dark. At the end of the 72 hour exposure period, the cups were opened, and the numbers of dead and live insects were counted. Using the insect counts, the activity of the test chemical was expressed in percent control. Percent control is derived from the total number of dead insects (TD) compared to the total number of insects (TI) in the test: […]

[2] = tested on: corn earworm (Helicoverpa zea [Boddie]); test: Cotton leaf-disc dip test against corn earworm; conditions: technical, 96 h
Procedure: as §1
In tests against corn earworm, one inch diameter leaf discs cut from cotton plant leaves (Gossypium hirsutum) were dipped into the test solutions of the test formulations to provide application rates as high as 1000 ppm of the active ingredients. The test formulations were dissolved in distilled water containing 10% acetone and 0.25% of a non-ionic detergent [an octylphenolpoly(ethyleneglycolether)x, available from Roche Applied Science as Triton X-100] to the proper concentrations. Cotton wicks, 0.5 inch diameter by 2 inches long, were soaked with distilled water and placed into the wells of a 32 well rearing tray (available as Rearing Tray Bio-Fit 32, from C-D International, Pittman, N.J.), one wick per well. Treated leaf discs were placed on top of the cotton wicks, one leaf disc per wick, and the rearing tray was transferred to a hood where they were kept until the leaf discs had dried. Each disc was infested with 1 late second to early third instar corn earworm, replicated sixteen times per rate of application, and a lid was placed on the rearing tray. The rearing trays were held in a growth chamber for 96 hours at 25° C., 50% relative humidity and a photoperiod of 12 hours light/12 hours dark. For tests in which the active ingredients were not formulated, i.e. the technical active ingredient was used; a stock solution of the test compound was made. For example, a 100 ppm stock solution may be made by dissolving 4 milligrams of the test compound in 4 mL of acetone and adding the solution to 36 mL of an aqueous Triton X-100 solution (one drop of Triton X-100 dissolved in 100 mL of distilled water). Further dilutions can be made by adding distilled water containing 10% acetone and 0.25% of Triton X-100.
(§2) At the end of the 96 hour exposure period, the rearing tray was opened, and the numbers of dead and live insects were counted. […] Using the insect counts, the activity of the test chemical was expressed in percent control. Percent control is derived from the total number of dead insects (TD) compared to the total number of insects (TI) in the test: […]

[3] = tested on: cotton aphid (Aphis gossypii [Glover]); test: Foliar leaf-dip test against cotton aphid on tomato plants; conditions: technical, 72 h
Procedure: as §1
In tests against cotton aphid, the leaves of 6 to 8 inch tall tomato plants (Lycopersicon lycoper) were infested with about 50 cotton aphids by placing leaf cuttings from a cotton aphid colony host tomato plant. After about 12 hours the newly infested tomato leaves were dipped into the test solutions of the test formulations to provide application rates as high as 1000 ppm of the active ingredients. The test formulations were dissolved in, and diluted as necessary, with distilled water containing 10% acetone and 0.25% of a non-ionic detergent [an octylphenolpoly(ethyleneglycolether)x, available from Roche Applied Science as Triton X-1001 to the proper concentrations. After treatment, a square of parafilm was placed around the stem of each test plant, covering the soil of each pot in order to catch dead aphids that fall from the leaves. The treated plants were transferred to a hood where they were kept until the leaves had dried. Once dry, the potted plants were placed into a tray containing at least one inch of water. The plants were spaced far enough apart to prevent the aphids from moving between plants. The trays were held in a growth chamber for 72 hours at 25° C., 50% relative humidity and a photoperiod of 14 hours light/10 hours dark. For tests in which the active ingredients were not formulated, i.e. the technical active ingredient was used; a stock solution of the test compound was made. For example, a 100 ppm stock solution may be made by dissolving 4 milligrams of the test compound in 4 mL of acetone and adding the solution to 36 mL of an aqueous Triton X-100 solution (one drop of Triton X-100 dissolved in 100 mL of distilled water). Further dilutions can be made by adding distilled water containing 10% acetone and 0.25% of Triton X-100.
At the end of the 72 hour exposure period the numbers of dead and live insects were counted. Insects were classified as “dead” if they were off-color or brown and desiccated. Using the insect counts, the activity of the test chemical was expressed in percent control. Percent control is derived from the total number of dead insects (TD) compared to the total number of insects (TI) in the test: […]

[4] = tested on: twospotted spider mite (Tetranychus urticae [Koch]); test: Foliar leaf-dip test against twospotted spider mite on pinto bean plants; conditions: technical, 96 h
Procedure: as §1
In tests against twospotted spider mites, the leaves of potted 3 to 4 inch tall pinto bean plants (Phaseolus vulgaris) were infested with about 50 to 75 adult twospotted spider mites by placing leaf cuttings from a twospotted spider mite colony host pinto bean plant on the upper surface of the test plant leaves. After about 1 hour the newly infested pinto bean leaves were dipped into the test solutions of the test formulations to provide application rates as high as 1000 ppm of the active ingredients. The test formulations were dissolved in, and diluted as necessary, with distilled water containing 10% acetone and 0.25% of a non-ionic detergent [an octylphenolpoly(ethyleneglycolether)x, available from Roche Applied Science as Triton X-100] to the proper concentrations. The treated plants were transferred to a hood where they were kept until the leaves had dried. Once dry, the potted plants were placed into a tray containing at least one inch of water. The plants were spaced far enough apart to prevent the mites from moving between plants. The trays were held in a growth chamber for 96 hours at 25° C., 50% relative humidity and a photoperiod of 14 hours light/10 hours dark. For tests in which the active ingredients were not formulated, i.e. the technical active ingredient was used; a stock solution of the test compound was made. For example, a 100 ppm stock solution may be made by dissolving 4 milligrams of the test compound in 4 mL of acetone and adding the solution to 36 mL of an aqueous Triton X-100 solution (one drop of Triton X-100 dissolved in 100 mL of distilled water). Further dilutions can be made by adding distilled water containing 10% acetone and 0.25% of Triton X-100.
as §2, with “period” for “period, the rearing tray was opened, and”

[5] = cyano-pyrethroid 0.3 ppm alone (bifenthrin 0 ppm)
[6] = cyano-pyrethroid 1.0 ppm alone (bifenthrin 0 ppm)
[7] = cyano-pyrethroid 3.0 ppm alone (bifenthrin 0 ppm)
[8] = cyano-pyrethroid 10.0 ppm alone (bifenthrin 0 ppm)
[9] = cyano-pyrethroid 0.3 ppm alone (bifenthrin 0.0 ppm)
[10] = cyano-pyrethroid 1.0 ppm alone (bifenthrin 0.0 ppm)
[11] = cyano-pyrethroid 3.0 ppm alone (bifenthrin 0.0 ppm)
[12] = cyano-pyrethroid 10.0 ppm alone (bifenthrin 0.0 ppm)
[13] = cyano-pyrethroid 30.0 ppm alone (bifenthrin 0 ppm)
[14] = cyano-pyrethroid 100.0 ppm alone (bifenthrin 0 ppm)
[15] = cyano-pyrethroid 200.0 ppm alone (bifenthrin 0 ppm)
[16] = bifenthrin 1.0 ppm alone (cyano-pyrethroid 0 ppm)
[17] = cyano-pyrethroid 60.0 ppm alone (bifenthrin 0 ppm)

Row | SMILES | % Mortality Adult Colorado Potato Beetle [1, 5] [%] | % Mortality Adult Colorado Potato Beetle [1, 6] [%] | % Mortality Adult Colorado Potato Beetle [1, 7] [%] | % Mortality Adult Colorado Potato Beetle [1, 8] [%] | % Mortality Corn Earworm [2, 9] [%] | % Mortality Corn Earworm [2, 10] [%] | % Mortality Corn Earworm [2, 11] [%] | % Mortality Corn Earworm [2, 12] [%] | % Mortality Cotton Aphid [3, 13] [%] | % Mortality Cotton Aphid [3, 14] [%] | % Mortality Twospotted Spider Mite [4, 8] [%] | % Mortality Twospotted Spider Mite [4, 13] [%] | % Mortality Twospotted Spider Mite [4, 14] [%] | % Mortality Cotton Aphid [3, 8] [%] | % Mortality Twospotted Spider Mite [4, 17] [%] | other results
1 | CC1(C)C(C=C(Cl)Cl)C1C(=O)OC(C#N)c1cccc(Oc2ccccc2)c1 (racemic) [alpha-cypermethrin, (S)-α-cyano-3-phenoxybenzyl (1R)-cis-3-(2,2-dichlorovinyl)-2,2-dimethylcyclopropanecarboxylate and (R)-α-cyano-3-phenoxybenzyl (1S)-cis-3-(2,2-dichlorovinyl)-2,2-dimethylcyclopropanecarboxylate] | 30 | 70 | 100 | 100 | 6 | 63 | 100 | 100 | 7 | 3 | 8 | 8 | 16 |  |  | % Mortality Cotton Aphid [3, 15]: 7%; % Mortality Twospotted Spider Mite [4, 15]: 32%
2 | Cc1c(COC(=O)[C@@H]2[C@H](/C=C(\Cl)C(F)(F)F)C2(C)C)cccc1-c1ccccc1 (racemic) [bifenthrin, 2-methylbiphenyl-3-ylmethyl (Z)-(1RS)-cis-3-(2-chloro-3,3,3-trifluoroprop-1-enyl)-2,2-dimethyl cyclopropanecarboxylate] |  |  |  |  |  |  |  |  |  |  |  |  |  |  |  | mortality at 0.3 ppm ([1]; Leptinotarsa decemlineata, foliar, bifenthrin 0.3 ppm alone (cyano-pyrethroid 0 ppm)): 0%; % Mortality Adult Colorado Potato Beetle [1, 16]: 10%; mortality at 0.1 ppm ([2]; Helicoverpa zea, bifenthrin 0.1 ppm alone (cyano-pyrethroid 0 ppm)): 6%; mortality at 0.3 ppm ([2]; Helicoverpa zea, bifenthrin 0.3 ppm alone (cyano-pyrethroid 0 ppm)): 13%; % Mortality Corn Earworm ([2]; bifenthrin 0.3 ppm alone (cyano-pyrethroid 0 ppm)): 25%; % Mortality Corn Earworm [2, 16]: 100% and 75% and 63%; mortality at 200 ppm ([3]; Aphis gossypii, foliar, bifenthrin 200.0 ppm alone (cyano-pyrethroid 0 ppm)): 100%; mortality at 60 ppm ([4]; Tetranychus urticae, foliar, bifenthrin 60.0 ppm alone (cyano-pyrethroid 0 ppm)): 68%; % Mortality Twospotted Spider Mite ([4]; bifenthrin 30.0 ppm alone (cyano-pyrethroid 0 ppm)): 66% and 100% and 69%; % Mortality Twospotted Spider Mite ([4]; bifenthrin 100.0 ppm alone (cyano-pyrethroid 0 ppm)): 75% and 90% and 100%
3 | CC1(C)C(C=C(Cl)Cl)C1C(=O)OC(C#N)c1ccc(F)c(Oc2ccccc2)c1 (racemic) [cyfluthrin, (RS)-α-cyano-4-fluoro-3-phenoxybenzyl (1RS)-cis-trans-3-(2,2-dichlorovinyl)-2,2-dimethylcyclopropanecarboxylate] | 10 | 70 | 80 | 100 | 13 | 69 | 100 | 100 | 6 | 9 | 14 | 17 | 11 | 4 | 23 | 
4 | CC1(C)[C@H](C(=O)O[C@H](C#N)c2cccc(Oc3ccccc3)c2)[C@@H]1/C=C(\Cl)C(F)(F)F (racemic) [lambda-cyhalothrin, (S)-α-cyano-3-phenoxybenzyl-(Z)-(1R)-cis-3-(2-chloro-3,3,3-trifluoropropenyl)-2,2-dimethylcyclopropanecarboxylate and (R)-α-cyano-3-phenoxybenzyl-(Z)-(1S)-cis-3-(2-chloro-3,3,3-trifluoropropenyl)-2,2-dimethylcyclopropanecarboxylate] | 30 | 100 | 100 | 100 | 6 | 31 | 56 | 100 | 11 | 10 | 16 | 19 | 39 | 11 | 55 | 
